The values below are quoted from earlier work in patent US20070072232A1, “Identification of genetic components of drug response” (Variagenics, Inc. a Delaware corporation, priority 2000, published 2007).

Structures can show the parent of a compound that is named as a salt.

For the series, the system named is Alzheimer's disease. Particulars: per PDR.

On to `Nc1c2c(nc3ccccc13)CCCC2` [Cognex, tacrine hydrochloride], for which, for the setting “patients receiving Cognex for Alzheimer's disease”, the “patients showing no change or minimal worsening of their disease” value is “about 45%”. In addition, where the note is “patients receiving Cognex”, the “Alzheimer's patients minimally improved” value is listed as “About 58%” and the patients much improved result was “about 2%”.
